Active and inactive are the calls of the source.

Experiment [1] concerns the target Serine/threonine-protein phosphatase PP1-alpha catalytic subunit (Homo sapiens, UniProt P62136). Kind of experiment: PP1 phosphatase inhibitors, dose response, biochemical, fluorescence (AID 2394).
Experiment [2] concerns the target T1, Serine/threonine-protein phosphatase (Homo sapiens, UniProt Q9BPW0).
T1 sequence (Q9BPW0 whole entry): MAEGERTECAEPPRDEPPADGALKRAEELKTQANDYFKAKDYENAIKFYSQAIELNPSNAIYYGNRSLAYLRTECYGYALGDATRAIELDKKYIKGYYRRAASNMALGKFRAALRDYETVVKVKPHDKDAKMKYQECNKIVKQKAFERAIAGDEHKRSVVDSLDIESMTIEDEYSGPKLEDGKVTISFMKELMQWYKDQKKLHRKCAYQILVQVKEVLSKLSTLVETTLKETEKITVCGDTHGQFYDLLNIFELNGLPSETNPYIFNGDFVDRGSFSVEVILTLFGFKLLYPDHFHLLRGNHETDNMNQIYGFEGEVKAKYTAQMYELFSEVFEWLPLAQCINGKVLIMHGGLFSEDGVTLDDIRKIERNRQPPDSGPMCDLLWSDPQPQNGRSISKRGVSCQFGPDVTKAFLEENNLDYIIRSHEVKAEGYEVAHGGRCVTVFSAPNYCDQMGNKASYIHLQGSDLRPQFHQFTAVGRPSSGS
Kind of experiment: PP5 phosphatase inhibitors, dose response, biochemical, fluorescence (AID 2395).

Experiment [3] has as its target T2, Apoptotic protease-activating factor 1 (Homo sapiens, UniProt O14727).
T2 sequence (O14727 whole entry): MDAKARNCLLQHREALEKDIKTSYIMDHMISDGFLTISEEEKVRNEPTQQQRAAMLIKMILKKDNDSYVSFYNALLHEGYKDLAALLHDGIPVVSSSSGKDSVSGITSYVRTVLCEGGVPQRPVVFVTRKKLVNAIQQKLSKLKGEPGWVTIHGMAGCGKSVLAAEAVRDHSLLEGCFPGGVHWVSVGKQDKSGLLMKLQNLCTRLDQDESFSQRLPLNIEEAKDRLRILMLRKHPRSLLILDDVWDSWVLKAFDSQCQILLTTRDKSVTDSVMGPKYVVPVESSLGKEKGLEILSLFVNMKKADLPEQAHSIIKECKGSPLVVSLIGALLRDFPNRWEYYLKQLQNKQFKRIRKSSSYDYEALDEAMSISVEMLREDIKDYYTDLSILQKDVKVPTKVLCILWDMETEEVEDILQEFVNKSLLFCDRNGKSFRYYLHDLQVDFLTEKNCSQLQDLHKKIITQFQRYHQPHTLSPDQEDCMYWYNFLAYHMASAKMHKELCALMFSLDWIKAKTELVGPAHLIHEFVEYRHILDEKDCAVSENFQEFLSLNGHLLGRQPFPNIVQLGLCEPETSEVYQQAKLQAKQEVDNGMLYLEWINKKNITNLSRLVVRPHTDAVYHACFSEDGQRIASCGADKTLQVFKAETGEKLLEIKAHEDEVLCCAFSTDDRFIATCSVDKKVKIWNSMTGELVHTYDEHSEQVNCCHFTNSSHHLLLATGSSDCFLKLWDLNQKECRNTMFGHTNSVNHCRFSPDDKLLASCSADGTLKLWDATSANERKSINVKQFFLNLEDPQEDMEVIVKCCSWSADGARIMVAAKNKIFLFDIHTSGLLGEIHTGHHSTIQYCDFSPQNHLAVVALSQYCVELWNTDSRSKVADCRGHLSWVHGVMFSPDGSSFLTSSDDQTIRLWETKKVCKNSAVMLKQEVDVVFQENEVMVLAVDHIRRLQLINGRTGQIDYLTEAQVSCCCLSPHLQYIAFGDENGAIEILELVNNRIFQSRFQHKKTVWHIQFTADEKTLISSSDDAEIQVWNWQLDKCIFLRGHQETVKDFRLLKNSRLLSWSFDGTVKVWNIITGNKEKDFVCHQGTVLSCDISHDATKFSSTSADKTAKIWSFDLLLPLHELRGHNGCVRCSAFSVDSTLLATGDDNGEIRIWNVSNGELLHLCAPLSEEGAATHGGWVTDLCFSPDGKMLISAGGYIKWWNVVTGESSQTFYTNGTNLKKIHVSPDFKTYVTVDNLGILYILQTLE
Format: functional.

The target of experiment [4] is Ras and Rab interactor 1/Tyrosine-protein kinase ABL1 (Homo sapiens, UniProt P00519+Q13671). Format: functional.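 Further: biochemical TR-FRET dose-response test measuring inhibition of binding between Rin1 and Abl proteins.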
For experiment [5], the target named is T3, Histone-lysine N-methyltransferase NSD2 (Homo sapiens, UniProt O96028).
T3 sequence (O96028 whole entry): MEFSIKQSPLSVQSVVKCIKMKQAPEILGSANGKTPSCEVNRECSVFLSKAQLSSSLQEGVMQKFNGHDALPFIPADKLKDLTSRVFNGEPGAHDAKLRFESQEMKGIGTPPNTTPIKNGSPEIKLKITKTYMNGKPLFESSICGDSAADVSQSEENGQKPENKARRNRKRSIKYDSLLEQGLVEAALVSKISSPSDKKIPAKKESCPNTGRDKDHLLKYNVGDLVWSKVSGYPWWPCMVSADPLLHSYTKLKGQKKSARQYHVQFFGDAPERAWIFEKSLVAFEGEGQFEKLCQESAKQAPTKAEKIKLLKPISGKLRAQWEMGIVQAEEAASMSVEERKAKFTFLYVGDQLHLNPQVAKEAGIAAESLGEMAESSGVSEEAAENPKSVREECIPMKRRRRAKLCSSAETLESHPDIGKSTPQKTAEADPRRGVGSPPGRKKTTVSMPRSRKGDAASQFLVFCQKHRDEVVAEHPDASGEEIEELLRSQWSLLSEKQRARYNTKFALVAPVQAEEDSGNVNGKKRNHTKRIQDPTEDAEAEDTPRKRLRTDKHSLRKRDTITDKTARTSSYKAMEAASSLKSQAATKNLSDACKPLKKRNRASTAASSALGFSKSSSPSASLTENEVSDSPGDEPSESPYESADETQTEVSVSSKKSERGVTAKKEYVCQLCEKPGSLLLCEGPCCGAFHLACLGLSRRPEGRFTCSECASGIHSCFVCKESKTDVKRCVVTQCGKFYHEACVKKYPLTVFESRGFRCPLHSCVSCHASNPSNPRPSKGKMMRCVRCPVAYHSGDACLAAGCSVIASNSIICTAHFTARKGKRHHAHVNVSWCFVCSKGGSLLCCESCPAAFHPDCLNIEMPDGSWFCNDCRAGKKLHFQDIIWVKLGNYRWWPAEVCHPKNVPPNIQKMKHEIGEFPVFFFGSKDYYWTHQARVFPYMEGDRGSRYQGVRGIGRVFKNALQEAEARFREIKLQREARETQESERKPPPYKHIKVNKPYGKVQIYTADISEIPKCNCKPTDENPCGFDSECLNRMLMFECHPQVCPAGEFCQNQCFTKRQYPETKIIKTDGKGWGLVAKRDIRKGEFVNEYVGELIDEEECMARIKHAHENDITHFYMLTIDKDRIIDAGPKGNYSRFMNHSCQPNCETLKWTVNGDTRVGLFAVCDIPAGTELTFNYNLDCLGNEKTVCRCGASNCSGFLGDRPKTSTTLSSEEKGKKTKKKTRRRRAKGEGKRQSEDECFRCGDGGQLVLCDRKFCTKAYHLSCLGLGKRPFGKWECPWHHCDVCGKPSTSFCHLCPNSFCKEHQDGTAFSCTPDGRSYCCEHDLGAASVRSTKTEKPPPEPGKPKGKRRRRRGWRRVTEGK
The experiment is classed as biochemical.

For experiment [6], the target named is T4, Tyrosyl-DNA phosphodiesterase 2 (Homo sapiens, UniProt O95551).
T4 sequence (O95551 whole entry): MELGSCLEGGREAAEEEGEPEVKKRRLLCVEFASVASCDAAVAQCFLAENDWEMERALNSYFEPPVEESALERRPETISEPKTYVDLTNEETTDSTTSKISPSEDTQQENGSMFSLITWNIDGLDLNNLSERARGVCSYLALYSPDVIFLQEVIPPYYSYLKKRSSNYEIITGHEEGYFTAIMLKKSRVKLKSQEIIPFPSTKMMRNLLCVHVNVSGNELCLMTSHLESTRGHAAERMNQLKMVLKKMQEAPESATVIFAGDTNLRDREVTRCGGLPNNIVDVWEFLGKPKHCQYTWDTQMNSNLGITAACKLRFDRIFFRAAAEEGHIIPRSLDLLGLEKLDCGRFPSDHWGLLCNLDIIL
Kind of experiment: human TDP2 enzyme inhibitors, dose response, biochemical, epi absorbance, IC50 (AID 743297).

The target in the next experiment is T5, Leucine aminopeptidase (Plasmodium falciparum 3D7, UniProt Q8IL11).
T5 sequence (Q8IL11 whole entry): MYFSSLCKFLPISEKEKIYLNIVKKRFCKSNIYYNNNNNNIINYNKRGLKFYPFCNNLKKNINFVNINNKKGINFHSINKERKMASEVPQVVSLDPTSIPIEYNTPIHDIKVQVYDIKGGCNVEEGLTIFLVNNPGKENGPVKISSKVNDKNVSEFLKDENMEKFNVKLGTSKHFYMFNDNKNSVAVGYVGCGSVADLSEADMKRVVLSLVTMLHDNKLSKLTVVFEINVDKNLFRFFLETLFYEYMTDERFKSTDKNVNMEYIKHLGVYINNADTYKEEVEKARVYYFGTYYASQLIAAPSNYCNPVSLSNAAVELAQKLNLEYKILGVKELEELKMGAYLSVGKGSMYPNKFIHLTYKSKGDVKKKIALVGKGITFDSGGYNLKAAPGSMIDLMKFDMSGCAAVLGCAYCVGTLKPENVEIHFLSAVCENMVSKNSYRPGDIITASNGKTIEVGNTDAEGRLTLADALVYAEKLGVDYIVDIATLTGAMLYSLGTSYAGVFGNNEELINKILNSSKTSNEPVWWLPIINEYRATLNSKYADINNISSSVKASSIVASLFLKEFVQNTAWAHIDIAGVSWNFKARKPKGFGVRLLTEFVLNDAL
Kind of experiment: P. falciparum M17LAP inhibitors, primary screen, biochemical, fluorogenic H-Leu-NHMec substrate, 1536-well (AID 1619). Format: functional.

The next experiment concerns the target T6, Aspartyl aminopeptidase (Plasmodium falciparum 3D7, UniProt Q8I2J3).
T6 sequence (Q8I2J3 whole entry): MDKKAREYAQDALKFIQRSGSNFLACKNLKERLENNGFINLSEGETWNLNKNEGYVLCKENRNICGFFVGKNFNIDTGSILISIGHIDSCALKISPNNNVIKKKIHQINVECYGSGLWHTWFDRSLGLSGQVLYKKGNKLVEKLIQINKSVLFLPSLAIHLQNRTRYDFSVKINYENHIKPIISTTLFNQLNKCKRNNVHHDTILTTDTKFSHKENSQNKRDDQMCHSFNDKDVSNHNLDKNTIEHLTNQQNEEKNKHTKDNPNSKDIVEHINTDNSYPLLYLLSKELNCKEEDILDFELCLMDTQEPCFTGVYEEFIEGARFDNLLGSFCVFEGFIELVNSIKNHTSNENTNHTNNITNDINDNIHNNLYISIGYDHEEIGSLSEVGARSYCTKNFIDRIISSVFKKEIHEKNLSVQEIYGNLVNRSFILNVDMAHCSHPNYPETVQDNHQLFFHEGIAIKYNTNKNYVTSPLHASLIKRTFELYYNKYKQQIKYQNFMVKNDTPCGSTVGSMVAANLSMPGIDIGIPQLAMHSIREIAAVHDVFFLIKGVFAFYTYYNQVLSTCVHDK
Kind of experiment: Counterscreen for inhibitors of M1 and M17 aminopeptidases: QFRET-based biochemical high throughput dose response assay for inhibitors of the Plasmodium falciparum M18 Aspartyl Aminopeptidase (PFM18AAP). [Related PubChem assays: 1619 (Screening assay (M17LAP inhibitors).), 1445 (Screening assay (M1AAP inhibitors).)]. (Counterscreens check selectivity or assay interference.)

Another experiment deals with Procathepsin L (Homo sapiens, UniProt P07711). The experiment in a line: cathepsin L inhibitors, dose response, counter-screen for M1/M17 aminopeptidase inhibitor project, biochemical, QFRET, 1536-well (AID 2214).
The next experiment concerns the target Cytochrome P450 2C19 (Homo sapiens, UniProt P33261). Kind of experiment: Cytochrome panel assay with activity outcomes. Panel member name: p450-cyp2c19 Compounds with AC50 equal or less than 10 uM are considered active. The experiment is classed as functional. The following applies: read-out: AC50.
A further experiment has as its target Cytochrome P450 3A4 (Homo sapiens, UniProt P08684).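 Further: CYP3A4 tested as one member of a cytochrome P450 panel screen.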

Chain of Procathepsin L (P07711 whole entry): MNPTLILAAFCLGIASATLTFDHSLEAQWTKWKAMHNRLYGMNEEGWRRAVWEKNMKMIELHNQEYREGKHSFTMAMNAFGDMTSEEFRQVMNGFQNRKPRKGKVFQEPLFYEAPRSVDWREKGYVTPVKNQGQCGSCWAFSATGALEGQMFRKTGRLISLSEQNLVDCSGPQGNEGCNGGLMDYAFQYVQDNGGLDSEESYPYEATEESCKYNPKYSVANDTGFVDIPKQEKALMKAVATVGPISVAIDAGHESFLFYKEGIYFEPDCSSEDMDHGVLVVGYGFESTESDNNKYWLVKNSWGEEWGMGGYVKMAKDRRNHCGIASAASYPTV
Chain of Serine/threonine-protein phosphatase PP1-alpha catalytic subunit (P62136 whole entry): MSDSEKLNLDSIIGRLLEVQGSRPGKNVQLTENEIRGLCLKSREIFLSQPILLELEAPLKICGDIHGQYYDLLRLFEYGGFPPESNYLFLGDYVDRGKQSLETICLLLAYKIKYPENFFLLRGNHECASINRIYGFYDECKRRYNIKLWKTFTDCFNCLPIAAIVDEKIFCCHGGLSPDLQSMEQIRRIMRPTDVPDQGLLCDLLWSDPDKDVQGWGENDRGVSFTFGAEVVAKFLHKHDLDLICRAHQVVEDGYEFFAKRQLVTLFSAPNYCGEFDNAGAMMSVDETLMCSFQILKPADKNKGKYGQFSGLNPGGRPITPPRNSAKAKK
Chain of Cytochrome P450 2C19 (P33261 whole entry): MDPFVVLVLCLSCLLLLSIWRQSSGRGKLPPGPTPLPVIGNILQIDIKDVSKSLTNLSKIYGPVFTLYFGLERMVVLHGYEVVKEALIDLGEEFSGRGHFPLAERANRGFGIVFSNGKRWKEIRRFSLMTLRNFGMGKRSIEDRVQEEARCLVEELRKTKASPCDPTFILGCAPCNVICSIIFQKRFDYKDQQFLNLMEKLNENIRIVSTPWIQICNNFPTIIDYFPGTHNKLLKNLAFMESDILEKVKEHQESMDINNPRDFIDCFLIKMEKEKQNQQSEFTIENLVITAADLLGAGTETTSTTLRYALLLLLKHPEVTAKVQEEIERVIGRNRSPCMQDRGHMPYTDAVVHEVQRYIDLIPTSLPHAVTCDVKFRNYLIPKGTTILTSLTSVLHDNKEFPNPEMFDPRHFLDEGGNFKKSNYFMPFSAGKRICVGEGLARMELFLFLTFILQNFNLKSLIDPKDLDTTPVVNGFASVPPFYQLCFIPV
Chain of Ras and Rab interactor 1/Tyrosine-protein kinase ABL1 (P00519 whole entry): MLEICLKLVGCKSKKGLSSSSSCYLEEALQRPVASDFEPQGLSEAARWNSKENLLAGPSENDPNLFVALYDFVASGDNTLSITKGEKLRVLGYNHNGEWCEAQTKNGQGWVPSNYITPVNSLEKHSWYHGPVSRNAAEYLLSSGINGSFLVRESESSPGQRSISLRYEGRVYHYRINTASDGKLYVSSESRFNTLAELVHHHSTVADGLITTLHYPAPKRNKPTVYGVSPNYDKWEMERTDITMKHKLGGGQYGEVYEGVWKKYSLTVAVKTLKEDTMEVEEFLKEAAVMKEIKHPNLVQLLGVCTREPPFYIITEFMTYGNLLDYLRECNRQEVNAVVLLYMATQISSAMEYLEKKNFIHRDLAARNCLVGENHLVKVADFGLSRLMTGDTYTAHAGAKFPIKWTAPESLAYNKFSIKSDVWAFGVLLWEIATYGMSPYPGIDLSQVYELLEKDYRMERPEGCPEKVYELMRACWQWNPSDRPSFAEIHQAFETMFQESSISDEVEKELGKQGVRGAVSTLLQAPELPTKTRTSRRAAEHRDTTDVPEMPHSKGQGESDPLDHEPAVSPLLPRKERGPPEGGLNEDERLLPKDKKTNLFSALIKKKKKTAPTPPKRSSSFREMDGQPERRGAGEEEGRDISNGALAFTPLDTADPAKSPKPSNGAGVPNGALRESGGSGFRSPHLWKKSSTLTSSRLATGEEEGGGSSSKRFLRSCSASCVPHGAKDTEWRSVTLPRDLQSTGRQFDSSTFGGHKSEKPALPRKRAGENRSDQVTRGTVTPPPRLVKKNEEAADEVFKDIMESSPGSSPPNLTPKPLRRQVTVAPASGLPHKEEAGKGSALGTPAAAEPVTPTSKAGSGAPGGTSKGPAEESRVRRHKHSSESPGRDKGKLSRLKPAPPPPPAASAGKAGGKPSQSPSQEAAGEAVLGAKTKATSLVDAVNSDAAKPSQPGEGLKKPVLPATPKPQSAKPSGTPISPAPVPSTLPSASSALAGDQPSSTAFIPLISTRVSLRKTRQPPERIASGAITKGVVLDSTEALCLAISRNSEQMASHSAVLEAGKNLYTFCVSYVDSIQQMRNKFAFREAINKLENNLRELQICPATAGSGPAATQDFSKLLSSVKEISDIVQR
Chain of Ras and Rab interactor 1/Tyrosine-protein kinase ABL1 (Q13671 whole entry): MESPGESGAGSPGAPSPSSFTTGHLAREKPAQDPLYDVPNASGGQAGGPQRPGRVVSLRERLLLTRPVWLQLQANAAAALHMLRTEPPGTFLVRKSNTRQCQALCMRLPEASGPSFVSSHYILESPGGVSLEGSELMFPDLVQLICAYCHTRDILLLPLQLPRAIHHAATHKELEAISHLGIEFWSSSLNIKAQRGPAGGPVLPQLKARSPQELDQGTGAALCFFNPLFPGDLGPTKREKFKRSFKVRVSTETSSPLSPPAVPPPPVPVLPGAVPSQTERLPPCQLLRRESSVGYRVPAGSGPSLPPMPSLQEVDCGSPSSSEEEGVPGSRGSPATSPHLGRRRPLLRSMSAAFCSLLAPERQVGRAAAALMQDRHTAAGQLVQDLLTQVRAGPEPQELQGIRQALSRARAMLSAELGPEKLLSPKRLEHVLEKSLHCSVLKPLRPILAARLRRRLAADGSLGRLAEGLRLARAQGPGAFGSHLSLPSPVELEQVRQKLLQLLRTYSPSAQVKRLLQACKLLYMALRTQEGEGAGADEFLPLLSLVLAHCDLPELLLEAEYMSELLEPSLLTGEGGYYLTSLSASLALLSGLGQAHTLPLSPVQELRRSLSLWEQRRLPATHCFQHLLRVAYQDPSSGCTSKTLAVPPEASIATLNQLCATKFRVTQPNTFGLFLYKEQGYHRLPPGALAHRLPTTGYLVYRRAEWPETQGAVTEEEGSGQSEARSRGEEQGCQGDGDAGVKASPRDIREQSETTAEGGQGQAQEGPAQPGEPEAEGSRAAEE
Chain of Cytochrome P450 3A4 (P08684 whole entry): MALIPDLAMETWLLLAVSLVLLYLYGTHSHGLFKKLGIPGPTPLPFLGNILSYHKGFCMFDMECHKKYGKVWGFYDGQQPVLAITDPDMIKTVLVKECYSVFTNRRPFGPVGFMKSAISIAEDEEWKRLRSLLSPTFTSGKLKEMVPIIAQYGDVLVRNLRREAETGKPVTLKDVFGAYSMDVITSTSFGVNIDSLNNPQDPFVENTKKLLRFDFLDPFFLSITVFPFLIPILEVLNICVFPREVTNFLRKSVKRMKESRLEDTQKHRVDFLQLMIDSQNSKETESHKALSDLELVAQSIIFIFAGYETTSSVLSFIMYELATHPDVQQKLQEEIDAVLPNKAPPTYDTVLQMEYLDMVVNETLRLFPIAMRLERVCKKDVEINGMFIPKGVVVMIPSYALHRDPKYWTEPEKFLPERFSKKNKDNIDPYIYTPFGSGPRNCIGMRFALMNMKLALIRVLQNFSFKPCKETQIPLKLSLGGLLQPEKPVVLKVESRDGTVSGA

As usually defined, the IC50 is the midpoint of a concentration-inhibition curve. One may read the AC50 as the concentration giving half of the maximal activity seen. Regarding `CC(=O)C(C(C)=O)C1(O)C(=O)c2ccccc2C1=O`, the IC50 was > 67 µM (not active) in experiment [1]; > 22.3 µM (not active) in experiment [2]; 9.72 µM (active) in experiment [3]; > 73.5 µM (inactive) in experiment [4]; 9.1 µM (active) in experiment [6]. In experiment [5], the AC50 was 5.35 µM (active).
On to `Cc1ccc(-c2c(C)sc(NC(=O)C3C4CCC(O4)C3C(=O)O)c2C(=O)OC(C)C)cc1` (centres undefined), for which the IC50 on Leucine aminopeptidase was 7.67 µM (active); on Aspartyl aminopeptidase it was > 73.5 µM (not active); against Procathepsin L, > 59.6 µM (not active). Moreover, the AC50 on Cytochrome P450 2C19 was 28.2 µM (inconclusive); on Cytochrome P450 3A4, 14.1 µM (inconclusive).
Take `O=C(O)Cc1ccc(NC(=O)Nc2cccc(Cl)c2)cc1`: the figures for the IC50 at Leucine aminopeptidase, against Aspartyl aminopeptidase and against Procathepsin L were 1.7 µM (active), > 73.5 µM (not active) and > 59.6 µM (not active), respectively.

For the origin of these results see ChEMBL document CHEMBL1201862, “PubChem BioAssay data set” (2004).
